{"source": "patent US10227321B2", "about": "“Soothing pro-pheromonal composition for mammals” (Melchior Material And Life Science France, priority 2014, dated 2019)", "key": {"[1]": {"assay": "Estimated amounts released into the atmosphere from the thermal diffuser", "assay_type": "physicochemical", "details": "for Daily amount released into the atmosphere: at 100° C.", "procedure": "Based on the preceding measurements, we can estimate that the amounts released over the 35-day period by molecules going into each composition are the following (in grams):\nBy considering that at 100° C., all of product 122:1 decomposes as was shown in Example 3, we can estimate the daily amounts of the various products released into the atmosphere according to the various formulae."}, "dogs": {"system": "dogs", "details": "dog, in vivo; cited from earlier work"}, "[2]": {"assay": "In vitro study of 2M2B release: climatic chamber, gas chromatography", "assay_type": "physicochemical", "details": "solution of Example 2b", "procedure": "Conditions A: 1) Solketal/KOH/RI/DMSO/50° C. 2) APTS/MeOH/H2O. Conditions B: 1) Solketal/KOH/RBr/Toluene/DS/2) APTS/MeOH/H2O. Conditions C: 1) CH2Cl2/Et3N/MsCl 2) Solketal/KOH/ROMs/Toluene/DS/Δ3) APTS/MeOH/H2O. GC Method Used: Equipment: GC, Hewlett Packard 5890 Series II Detector FID Column: HP5 30 m, 0.53 mm, 0.88 μm Pressure: 11 psi Injection volume: 1 μL Sample preparation: 4 mg/mL in AcOEt Injector temperature: 270° C. Detector temperature: 280° C. Oven:\nThe solution prepared in Example 2b is used in a climatic chamber at 100° C. and 30° C. (conditions corresponding either to the temperature of a thermal diffuser or to room temperature). Samples are taken at regular intervals and the disappearance of compound 122:1 and the appearance of C22:1 AKG is measured by gas chromatography. The results are presented in the following table (the percentages are expressed only taking into consideration integration relative to compound 118 and of C18:0 AKG): […]"}}}
{"compound": "CC=C(C)C=O", "note": "[2-Methyl-2-butenal, 2-methyl-2-butenal]", "values": [{"measurement": "Daily amount released into the atmosphere", "setting": "[1]; 2% Formula (2e)", "value": 0.036, "unit": "mg"}, {"measurement": "Daily amount released into the atmosphere", "setting": "[1]; 5% Formula (2d)", "value": 36, "unit": "mg"}, {"measurement": "Daily amount released into the atmosphere", "setting": "[1]; 10% Formula (2c)", "value": 0.32, "unit": "mg"}, {"measurement": "effect on dogs", "setting": "dogs", "value": "has an effect on the heartbeat and the behavior of dogs"}]}
{"compound": "C/C=C(\\C)C1OCC(COCCCCCCCCCCCC/C=C\\CCCCCCCC)O1", "note": "(centres unmarked) [122:1]", "values": [{"measurement": "amount released over the 35-day period", "setting": "[1]; from Formula 2c", "value": 0.05, "unit": "grams"}, {"measurement": "amount released over the 35-day period", "setting": "[1]; from Formula 2e", "value": 0.0063, "unit": "grams"}, {"measurement": "amount released over the 35-day period", "setting": "[1]; from Formula 2d", "value": 0.0063, "unit": "grams"}]}
{"compound": "CCCCCCCCCCCCCCCCCCOCC(O)CO", "note": "(centres unmarked) [C18:0 AKG]", "values": [{"measurement": "% (GC integration relative to compound 118 and C18:0 AKG)", "setting": "[2]; T = 30° C., 1 d", "value": 0, "unit": "%"}, {"measurement": "% (GC integration relative to compound 118 and C18:0 AKG)", "setting": "[2]; T = 30° C., 2 d", "value": 0, "unit": "%"}, {"measurement": "% (GC integration relative to compound 118 and C18:0 AKG)", "setting": "[2]; T = 30° C., 7 d", "value": 0, "unit": "%"}, {"measurement": "% (GC integration relative to compound 118 and C18:0 AKG)", "setting": "[2]; T = 30° C., 14 d", "value": 0.5, "unit": "%"}, {"measurement": "% (GC integration relative to compound 118 and C18:0 AKG)", "setting": "[2]; T = 30° C., 21 d", "value": 1, "unit": "%"}, {"measurement": "% (GC integration relative to compound 118 and C18:0 AKG)", "setting": "[2]; T = 30° C., 28 d", "value": 1, "unit": "%"}, {"measurement": "% (GC integration relative to compound 118 and C18:0 AKG)", "setting": "[2]; T = 30° C., time 0", "value": 0, "unit": "%"}, {"measurement": "% (GC integration relative to compound 118 and C18:0 AKG)", "setting": "[2]; T = 100° C., 3 h", "value": 48, "unit": "%"}, {"measurement": "% (GC integration relative to compound 118 and C18:0 AKG)", "setting": "[2]; T = 100° C., 6 h", "value": 75, "unit": "%"}, {"measurement": "% (GC integration relative to compound 118 and C18:0 AKG)", "setting": "[2]; T = 100° C., 1 d", "value": 98, "unit": "%"}, {"measurement": "% (GC integration relative to compound 118 and C18:0 AKG)", "setting": "[2]; T = 100° C., 2 d", "value": 100, "unit": "%"}, {"measurement": "% (GC integration relative to compound 118 and C18:0 AKG)", "setting": "[2]; T = 100° C., 7 d", "value": 100, "unit": "%"}, {"measurement": "% (GC integration relative to compound 118 and C18:0 AKG)", "setting": "[2]; T = 100° C., 14 d", "value": 100, "unit": "%"}, {"measurement": "% (GC integration relative to compound 118 and C18:0 AKG)", "setting": "[2]; T = 100° C., 21 d", "value": 100, "unit": "%"}, {"measurement": "% (GC integration relative to compound 118 and C18:0 AKG)", "setting": "[2]; T = 100° C., 28 d", "value": 100, "unit": "%"}, {"measurement": "% (GC integration relative to compound 118 and C18:0 AKG)", "setting": "[2]; climatic chamber, T = 100° C., time 0", "value": 0, "unit": "%"}]}
{"compound": "C/C=C(\\C)C1OCC(COCCCCCCCCCCCC/C=C\\CCCCCCCC)O1", "note": "(centres unmarked) [C22:1 AKG]", "values": [{"measurement": "Daily amount released into the atmosphere", "setting": "[1]; 2% Formula (2e)", "value": 0.14, "unit": "mg"}, {"measurement": "Daily amount released into the atmosphere", "setting": "[1]; 5% Formula (2d)", "value": 0.14, "unit": "mg"}, {"measurement": "Daily amount released into the atmosphere", "setting": "[1]; 10% Formula (2c)", "value": 1.2, "unit": "mg"}]}
{"compound": "CCCCC/C=C\\C/C=C\\CCCCCCCC(=O)O", "note": "[Linoleic acid]", "values": [{"measurement": "Daily amount released into the atmosphere", "setting": "[1]; 2% Formula (2e)", "value": 5.8, "unit": "mg"}, {"measurement": "Daily amount released into the atmosphere", "setting": "[1]; 5% Formula (2d)", "value": 5.1, "unit": "mg"}, {"measurement": "Daily amount released into the atmosphere", "setting": "[1]; 10% Formula (2c)", "value": 5.5, "unit": "mg"}, {"measurement": "amount released over the 35-day period", "setting": "[1]; from Formula 2c", "value": 0.195, "unit": "grams"}, {"measurement": "amount released over the 35-day period", "setting": "[1]; from Formula 2e", "value": 0.2, "unit": "grams"}, {"measurement": "amount released over the 35-day period", "setting": "[1]; from Formula 2d", "value": 0.188, "unit": "grams"}]}
